Format in all cases: cell-based, human
For one data set, the system named is SKOV3 cells. The experiment in a line: 10-14 day Clonagenicity Assay (MTT), SKOV3. The conditions noted are these: for percentage survival relative to the missense, n = 1: independent experiment n = 1, dilution point of maximum toxicity; for percentage survival relative to the missense, n = 3: independent experiment n = 3, dilution point of maximum toxicity. The source says:
(§1) The Clonagenicity Assay represents a Cell Viability Screen that allows assessment of a cytotoxic insult at a variety of seed densities of cancer cell lines over an extended period of logarithmic growth, such that the definitive effect of the test substance can be accurately quantified. In this instance, the ‘cytotoxic insult’ to be tested involves the transfection of siRNA Oligomers to knockdown the expression of novel target Kinases and GPCRs as outlined previously. Cell number is quantified 10-14 days post siRNA transfection by MTT conversion as described in detail in Example 6.
(§2) The Clonagenicity Assay is optimised for each cell line examined with respect to seed number. The seed number varies for each cell line and accounts for the differences in cell size, growth rate and sensitivity to transfection-induced toxicity for each cell line pursued. Cells lines given as models for this example include HCT15, MCF7, A549, SKOV3, DU145, U251, PC3, A498 and HeLa. The siRNA oligo to Survivin serves as a positive control for toxicity in this assay and the missense control oligomer acts as a negative control as described in detail in Examples 5 and 6. The c-Raf, BCL2 and PI3K siRNA oligomers serve as additional controls as previously mentioned. The Clonagenicity assay is performed as outlined below.
(§3) Cells are seeded into a 96-well plate as described below and allowed to adhere overnight at 37° C. in a humidified atmosphere containing 5% CO2 in air. Wells are seeded with an appropriate cell number (cell line dependent) in Column 1 of the 96 well plates and this cell suspension is diluted 1 in 2 across the 96 well plates from Column 1 through to 6 (represented on the x-axis in results). Cells are next transfected with siRNA Oligomers, at a concentration of 2 μg/ml, against the genes of interest. Transfections continue for 4 hrs after which the transfection solution is removed and cells are refed with fresh medium and allow to incubate overnight. An additional media change@24 hrs post transfection is made to minimise toxicity of the transfection reagent. Cells are subsequently incubated for a 10-14 Day period post transfection at a 37° C. incubation as described above. Medium is renewed weekly following which MTT quantification is performed as described in Example 5.
(§4) To be considered cytotoxic, the siRNA Oligo against the gene target must induce a decreased viability in a cell line across at least 2 seed densities in the clonagenicity assay, such that a significant difference between the target gene and MS is observed i.e. no crossing of the Standard Error bars is detected. The average percentage viability, relative to missense, is recorded for the dilution point at which Maximum Toxicity is induced is recorded in Table 13.
(§5) Table 13 Clonagenicity Assay—This table gives the average percentage survival of the indicated cell lines relative to the missense in a clonagenicity assay, over 3 independent experiments. As an internal reference, the known survival gene ‘Survivin’, BCL2, c-Raf and PI3KR1 was also targeted by siRNA. When no Cytotoxic response is detected ‘-’ is recorded.

In a further data set the test system is DU145 cells. The experiment in a line: 10-14 day Clonagenicity Assay (MTT), DU145. To be noted: for percentage survival relative to the missense, n = 1: independent experiment n = 1, dilution point of maximum toxicity; for percentage survival relative to the missense, n = 2: independent experiment n = 2, dilution point of maximum toxicity; for percentage survival relative to the missense, n = 3: independent experiment n = 3, dilution point of maximum toxicity.
Description: as §1, §2, §3, §4, §5

The test system of the next data set is A498 cells. Briefly: 10-14 day Clonagenicity Assay (MTT), A498. To be noted: for percentage survival relative to the missense, n = 1: independent experiment n = 1, dilution point of maximum toxicity; for percentage survival relative to the missense, n = 3: independent experiment n = 3, dilution point of maximum toxicity.
Description: as §1, §2, §3, §4, §5

Another data set deals with U251 cells. The experiment in a line: 10-14 day Clonagenicity Assay (MTT), U251. To be noted: for percentage survival relative to the missense, n = 1 / percentage survival relative to the missense, n = 3 / percentage survival relative to the missense, n = 2: U251, clonagenicity assay, dilution point of maximum toxicity; for percentage survival relative to the missense, n = 1: independent experiment n = 1; for percentage survival relative to the missense, n = 3: independent experiment n = 3; for percentage survival relative to the missense, n = 2: independent experiment n = 2; for viability/cytotoxicity in the Clonagenicity Assay: U251, 10-14 days post transfection, MTT, FIG. 35.
Description: as §1, §2, §3
Note seed density decreases from 3.5 to 0.1×10^3 cells on the x-axis and the y-axis represents cell number as quantified by MTT conversion, 10-14 days post transfection. This decrease is substantially greater that with the apoptosis gene, Survivin. […] Note seed density decreases from 3.5 to 0.1×10^3 cells on the x-axis and the y-axis represents cell number as quantified by MTT conversion, 10-14 days post transfection.
as §4, §5

In a further data set the test system is HCT15 cells. The experiment in a line: 10-14 day Clonagenicity Assay (MTT), HCT15. To be noted: independent experiment n = 1, dilution point of maximum toxicity.
Description: as §1, §2, §3, §4, §5

The next data set concerns PC3 cells. The experiment in a line: 10-14 day Clonagenicity Assay (MTT), PC3. The conditions noted are these: independent experiment n = 3, dilution point of maximum toxicity.
Description: as §1, §2, §3, §4, §5

In another data set the test system is A549 cells. Briefly: 10-14 day Clonagenicity Assay (MTT), A549. The conditions noted are these: for percentage survival relative to the missense, n = 1: independent experiment n = 1, dilution point of maximum toxicity; for percentage survival relative to the missense, n = 3: independent experiment n = 3, dilution point of maximum toxicity.
Description: as §1, §2, §3, §4, §5

[1] abbreviates: independent experiment n = 2, dilution point of maximum toxicity.

Regarding “CNK/PRK (sense UCGUAGUGCUUGUACUUACtt; antisense GUAAGUACAAGCACUACGAtt; as printed in the source, key not given here)”, the “percentage survival relative to the missense, n = 1” value in the data set with SKOV3 cells came out at 13.8%; in the data set with DU145 cells it was 46.1%; in the data set with A498 cells it was 9.5%; in the data set with U251 cells, 48.8%; in the data set on HCT15 cells, 75.9%. Moreover, the “percentage survival relative to the missense, n = 3” value in the data set on SKOV3 cells turned out to be 50.1%; in the data set with DU145 cells it was 16.8%; in the data set on A498 cells, 7.2%; with U251 cells, 44.5%. Further, the “percentage survival relative to the missense, n = 2” value in the data set on DU145 cells was 39%.
With “CNK/PRK SEQ 2 (sense CAGAAAGACUGUGCACUACTT; antisense GUAGUGCACAGUCUUUCUGTT; chemistry not given here)”, the “percentage survival relative to the missense, n = 1” value in the data set on SKOV3 cells turned out to be 65.7%; in the data set with A498 cells, 20%; in the data set with U251 cells, 35.2%; in the data set on A549 cells, 62.5%. For the same substance, the “percentage survival relative to the missense, n = 3” value with SKOV3 cells is listed as 72.2%; with PC3 cells, 28.3%; in the data set on A498 cells, 8.2%; with U251 cells, 57.5%; in the data set on A549 cells it was 25.6%.
As to “MKNK SEQ 2 (sense AUUGCAAGGAGGUUCCAUCTT; antisense GAUGGAACCUCCUUGCAAUTT; chemistry not given here)”, the “percentage survival relative to the missense, n = 3” value in the data set on SKOV3 cells was 47.6%; in the data set on DU145 cells, 53.6%; in the data set with PC3 cells, 39.5%; in the data set on A498 cells, 6%; in the data set on U251 cells, 52.1%; in the data set on A549 cells it was 54.8%. In addition, in the data set on A498 cells, the “percentage survival relative to the missense, n = 1” value turned out to be 56.2%. In addition, the “percentage survival relative to the missense, n = 2” value with U251 cells was 43.6%.
On to “MPSK1 SEQ 2 (sense GCCGACAUGCAUCGCCUCUTT; antisense AGAGGCGAUGCAUGUCGGCTT; chemistry not given here)”, for which the “percentage survival relative to the missense, n = 3” value in the data set on SKOV3 cells came out at 73.8%; in the data set with DU145 cells, 63.4%; in the data set with PC3 cells it was 16.7%; in the data set with A498 cells, 8.9%; in the data set on U251 cells, 59.3%; in the data set on A549 cells it was 26.1%. In addition, the “percentage survival relative to the missense, n = 1” value in the data set on A498 cells is 39.3%; with A549 cells, 39.1%.
Turning to “PSKH1 SEQ 2 (sense UUGGCCGAGGCAGCUUCAGTT; antisense CUGAAGCUGCCUCGGCCAATT; chemistry not given here)”, the “percentage survival relative to the missense, n = 1” value stood at 42.3% in the data set with SKOV3 cells, 36% in the data set with A498 cells, 52.1% with U251 cells and 52.3% with A549 cells. Also, the “percentage survival relative to the missense, n = 3” value in the data set with SKOV3 cells worked out at 45.1%; in the data set on DU145 cells it was 35.2%; in the data set with PC3 cells it was 21.8%; in the data set with A498 cells it was 6%; in the data set with U251 cells it was 34.1%; in the data set with A549 cells it was 28%. The “percentage survival relative to the missense, n = 2” value in the data set on U251 cells was 50.7%.
Consider “siRNA FLJ13351: sense CACCAAUUAGUUCAAAGCUtt, antisense AGCUUUGAACUAAUUGGUGtt (sense CACCAAUUAGUUCAAAGCUTT; antisense AGCUUUGAACUAAUUGGUGTT; chemistry not given here)”, for which, in the data set on U251 cells, the “viability/cytotoxicity in the Clonagenicity Assay” value is “does not induce cytotoxicity”.
“siRNA PI3KR1: control siRNA, sense AUGAUCGAUGUGCACGUUUtt, antisense AAACGUGCACAUCGAUCAUtt (sense AUGAUCGAUGUGCACGUUUTT; antisense AAACGUGCACAUCGAUCAUTT; chemistry not given here) [reference compound]”: the “percentage survival relative to the missense, n = 1” value is 55.3% with SKOV3 cells and 56.3% in the data set with U251 cells. In addition, the “percentage survival relative to the missense, n = 3” value in the data set with SKOV3 cells amounted to 41.7%; in the data set on DU145 cells, 44.8%; in the data set on A498 cells it was 10%; with U251 cells, 21.4%; with A549 cells, 38.3%.
In the case of “siRNA STK6: sense GCCGGUUCAGAAUCAGAAGtt, antisense CUUCUGAUUCUGAACCGGCtt (sense GCCGGUUCAGAAUCAGAAGTT; antisense CUUCUGAUUCUGAACCGGCTT; chemistry not given here)”, the “percentage survival relative to the missense, n = 1” value with SKOV3 cells was determined as 10.2%; in the data set with DU145 cells it was 48.1%; in the data set on A498 cells it was 18.5%; in the data set on U251 cells, 12.8%; in the data set with A549 cells, 56.8%; with HCT15 cells, 69.6%. The “percentage survival relative to the missense, n = 2” value with SKOV3 cells (setting [1]) was found to be 35.3%; in the data set on DU145 cells, 45.3%; with U251 cells it was 51.5%; with A549 cells (setting [1]) it was 69.6%. Also, the “percentage survival relative to the missense, n = 3” value in the data set on SKOV3 cells worked out at 37.2%; in the data set with DU145 cells it was 34.8%; with A498 cells, 32.6%; in the data set with U251 cells, 25.8%; with A549 cells, 31.6%. Also, the “viability/cytotoxicity in the Clonagenicity Assay” value in the data set on U251 cells is “decreases viability”.

Values taken from patent publication US20050019746A1, “Apoptosis-related kinase/GPCRs” (EiRx Therapeutics Limited, priority 2003, published 2005).
